From ChEMBL document CHEMBL4725416, “Structure-Based Discovery of Novel Ligands for the Orexin 2 Receptor” (J Med Chem, 2020)
Activity calls are given as the source filed them. How the calls were made is not given here.

Columns and labels:
[1] = molecular target: T1, Orexin/Hypocretin receptor type 1 (Homo sapiens) (UniProt O43613); assay: Displacement of [3H]-[…] from human orexin 1 receptor expressed in CHO cells incubated for 2 hrs by whole cell radioligand binding assay; format: cell-based
T1 sequence (whole entry): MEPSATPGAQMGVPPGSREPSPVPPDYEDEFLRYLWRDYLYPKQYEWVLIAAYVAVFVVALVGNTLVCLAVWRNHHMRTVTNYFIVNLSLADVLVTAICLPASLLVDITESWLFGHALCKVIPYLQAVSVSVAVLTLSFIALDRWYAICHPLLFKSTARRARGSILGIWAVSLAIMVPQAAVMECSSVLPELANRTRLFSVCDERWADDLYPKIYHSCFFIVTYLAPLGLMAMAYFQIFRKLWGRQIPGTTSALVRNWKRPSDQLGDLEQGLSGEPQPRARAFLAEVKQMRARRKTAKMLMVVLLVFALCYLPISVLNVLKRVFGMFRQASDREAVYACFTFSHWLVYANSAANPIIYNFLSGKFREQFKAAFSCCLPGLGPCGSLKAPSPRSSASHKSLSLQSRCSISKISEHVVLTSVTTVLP

[2] = species on record: Homo sapiens; assay: Displacement of [3H]-EMPA from human orexin 2 receptor expressed in CHO cells incubated for 2 hrs by whole cell radioligand binding assay; format: cell-based

| pKi [1] | SMILES | pKi [2] |
| --- | --- | --- |
| inactive | Cc1cc(=O)oc2cc(OCC(=O)c3cccc4ccccc34)ccc12 | inactive |
| inactive | O=S(=O)(c1ccc(-c2noc(-c3ccco3)n2)cc1)N1CCCCC1 | inactive |
| inactive | COc1cc(=O)n2c(c1C(=O)N(C)[C@@H](C)c1ccco1)CCN(C(=O)c1c(F)cccc1F)CC2 | inactive |
| inactive | O=C(CCCn1cnc2ccccc2c1=O)NCc1ccccn1 | inactive |
| inactive | Cc1cccc(-n2cc(C(=O)N3CCC[C@@H]([n+]4cc[nH]c4)C3)nn2)c1 | inactive |
| inactive | O=C(c1ccc(Cl)c(N2CCCC2=O)c1)N1CCN(Cc2cc(=O)n3ccsc3n2)CC1 | inactive |
| inactive | O=C1N(Cc2ccc(F)cc2)C[C@H]2CN(Cc3nccs3)CCN12 | inactive |
| inactive | O=C(C1CC1)N1CCC[C@@H](Cn2cc(-c3cnc(-c4ccco4)nc3)nn2)C1 | inactive |
| inactive | Nc1cc(-c2ncccc2C(=O)N2C[C@H]3CC[C@@H]2C3)c2cc[nH]c2n1 | inactive |

More lines, now with the values behind:

| SMILES | pKi [1] | pKi [2] |
| --- | --- | --- |
| O=S(=O)([N-]c1nc2ccccc2nc1-[n+]1ccc(Oc2ccccc2)cc1)c1ccccc1 | inactive | inactive |
| O=C(c1ccc(Cl)c(N2CCCC2=O)c1)N1CCN(Cc2ccc3c(c2)CCO3)CC1 | inactive | inactive |
| CCCN1C(C)=NS(=O)(=O)c2cc(C(=O)N3CCN(Cc4ccccc4)CC3)ccc21 | inactive | inactive |
| C=CCOc1cccc([C@H]2c3c(oc4ccc(C)cc4c3=O)C(=O)N2Cc2ccco2)c1 | inactive | inactive |
| O=C(OCCCn1c(=O)[nH]c2ccccc21)c1ccc2c(c1)C(=O)N(c1ccc(Cl)cc1)C2=O | inactive | inactive |
| CS(=O)(=O)N1CCc2cc(S(=O)(=O)N3CCN(Cc4ccc5c(c4)OCO5)CC3)ccc21 | inactive | inactive |
| COc1ccc(-n2nc(C(=O)NCCc3ccc(Cl)cc3)c3c4ccccc4n(C)c3c2=O)cc1 | inactive | inactive |
| O=C(c1cn(Cc2ccc(F)cc2)cc2c(=O)n(-c3ccccc3)nc1-2)N1CCc2ccccc21 | inactive | inactive |
| CCc1c(C)c2ccc(OCC(=O)c3ccc(F)cc3)cc2oc1=O | inactive | inactive |
| O=C(CCCN1C(=O)c2cccc3cccc(c23)C1=O)Oc1ccc(F)cc1 | inactive | inactive |
| COc1ccc2c(c1)c1c(c(=O)n(Cc3ccccc3)c(=O)n1Cc1cc(=O)n3ccccc3n1)n2C | inactive | inactive |
| O=C(Oc1cccc2c(OC(=O)c3ccco3)cccc12)c1ccco1 | inactive | inactive |
| COc1cc([C@H]2c3c(oc4ccccc4c3=O)C(=O)N2Cc2ccc(F)cc2)cc(OC)c1OC | inactive | inactive |
| CN(Cc1ccncc1)C(=O)c1ccc(COc2ccccc2C#N)o1 | inactive | inactive |
| COc1cccc([C@H]2c3c(oc4ccccc4c3=O)C(=O)N2Cc2ccccc2)c1 | inactive | inactive |
| Cc1nn(-c2ccccc2)c(C)c1C(=O)O[C@@H](C(N)=O)c1ccccc1 | inactive | inactive |
